Source: the kinase profiling compilation of Christmann-Franck et al. (2016)

These compounds were tested against SGK1 (human) (UniProt O00141) (assay: Flashplate).
Chain of SGK1 (human) (O00141 whole entry, looked up): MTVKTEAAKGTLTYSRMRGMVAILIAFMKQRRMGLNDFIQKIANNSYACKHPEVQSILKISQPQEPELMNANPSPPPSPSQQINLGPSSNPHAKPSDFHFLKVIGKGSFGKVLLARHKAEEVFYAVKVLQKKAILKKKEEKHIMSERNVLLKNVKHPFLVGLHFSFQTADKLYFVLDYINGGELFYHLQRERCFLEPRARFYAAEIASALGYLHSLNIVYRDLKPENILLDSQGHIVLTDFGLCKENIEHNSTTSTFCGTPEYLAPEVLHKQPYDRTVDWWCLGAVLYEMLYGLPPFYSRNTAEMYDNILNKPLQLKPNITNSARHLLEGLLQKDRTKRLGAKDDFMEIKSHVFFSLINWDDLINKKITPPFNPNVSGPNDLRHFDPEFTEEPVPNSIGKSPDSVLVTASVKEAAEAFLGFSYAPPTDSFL

CCN1CCN(Cc2ccc(NC(=O)Nc3ccc(Oc4cc(NC)ncn4)cc3)cc2C(F)(F)F)CC1 and O=C(Nc1ccc(-c2cccc3sncc23)cc1)Nc1ccc(F)c(C(F)(F)F)c1 cannot be ordered by Ki: greater than 6.31 µM for the first, greater than 10 µM for the second.

Compared with NC(=O)C1CCCN(C(=O)c2cc(-c3ccc4[nH]ncc4c3)on2)C1 (stereo not drawn), c1cc2[nH]ncc2cc1-c1cn(CC2CCOCC2)nn1 is lower in Ki: greater than 10 µM for the first, 7.94 µM for the second.

First: Cc1c(C)n(Cc2ccccc2)c2ccc(C(=O)Nc3nc[nH]n3)cc12
Second: O=C(Nc1n[nH]c2ccc(-c3cn(Cc4ccccc4)nn3)cc12)c1cccc(F)c1
The Ki of the first is higher: greater than 10 µM for the first, 0.1 µM for the second.

Nc1ncnc2sc3c(c12)-c1ccc(NC(=O)Nc2ccccc2)cc1CC3 and Cc1ccccc1NC(=O)Nc1ccc2c(c1)CCc1sc3ncnc(N)c3c1-2 cannot be ordered by Ki: greater than 10 µM for the first, greater than 10 µM for the second.

Going from OCC(CO)Nc1ncnc2[nH]cc(-c3ccccc3)c12 to O=C(O)c1cc2c(-c3ccccc3)cncc2s1, the Ki falls from 7.94 µM to 3.98 µM (2-fold). The second binds more tightly here.

Cc1ccc(NC(=O)Nc2ccc(NC(=O)c3csc4ncnc(N)c34)cc2)cc1 and Cc1cc(C)cc(NC(=O)Nc2ccc(NC(=O)c3csc4ncnc(N)c34)cc2)c1 cannot be ordered by Ki: greater than 10 µM for the first, greater than 10 µM for the second.

First: O=C(N[C@H](CO)c1ccccc1)c1ccc(-c2ccncc2)cc1
Second: NCC(NC(=O)c1ccc(-c2ccncc2)cc1)c1ccccc1 (stereo not drawn)
The Ki of the first is 5-fold higher: 1.58 µM for the first, 0.316 µM for the second.

First: Cc1c(-c2ccc3[nH]nc(N)c3c2)nnn1Cc1ccccc1
Second: Nc1n[nH]c2ccc(-c3nnn(Cc4ccccc4)c3-c3ccccc3)cc12
The Ki of the first is 2-fold lower: 0.316 µM for the first, 0.631 µM for the second.

First: N[C@H](COc1cncc(-c2cc3cnccc3s2)c1)Cc1c[nH]c2ccccc12
Second: N[C@H](COc1cncc(-c2ccc3[nH]c(=O)oc3c2)c1)Cc1c[nH]c2ccccc12
The Ki of the first is 5-fold lower: 1 µM for the first, 5.01 µM for the second.

Going from CN(C)c1cccc2c(S(=O)(=O)N(CCN)c3cncc(-c4ccc5cnccc5c4)c3)cccc12 to CN(C)CC(=O)N[C@H](COc1cncc(-c2ccc3cnccc3c2)c1)Cc1c[nH]c2ccccc12, the Ki rises from 3.98 µM to 7.94 µM (2-fold).

Compared with Fc1ccc(-c2ncn(CCN3CCOCC3)c2-c2ccc3[nH]ncc3c2)cc1, N#Cc1ccc2[nH]c(O)c(-c3ccc(CN4CCOCC4)cn3)c2c1 is lower in Ki: greater than 10 µM for the first, 3.16 µM for the second. The second binds more tightly here.

Compared with O=C(Cc1ccc(Cl)cc1)Nc1[nH]nc2c1CCC2, Cc1n[nH]c2sc(C(=O)NCCc3ccc(Cl)cc3)cc12 is lower in Ki: greater than 10 µM for the first, 3.98 µM for the second. The second binds more tightly here.

CC1(C)CC(=O)C2=C(C1)Nc1cc(Cl)ccc1S2 and N#Cc1ncc2nc1OCC(O)C(O)COc1ccc(Cl)cc1NC(=O)N2 (stereo not drawn) cannot be ordered by Ki: greater than 10 µM for the first, greater than 10 µM for the second.

CCOC(=O)C1=c2s/c(=C/c3ccco3)c(=O)n2C(N)=C(C#N)C1c1ccco1 (stereo not drawn) and CCOC(=O)C1=C(N)n2c(s/c(=C\c3cccs3)c2=O)=C(C(N)=O)C1c1cccs1 (stereo not drawn) cannot be ordered by Ki: greater than 10 µM for the first, greater than 10 µM for the second.

CC(C)=C(C)c1cccc2c(CCCOc3cccc(Cl)c3Cl)c(C(=O)O)[nH]c12 and Cc1cccc(Cl)c1-c1cccc2c(CCCOc3cccc4ccccc34)c(C(=O)NCCOCCOCCN)[nH]c12 cannot be ordered by Ki: greater than 10 µM for the first, greater than 10 µM for the second.

Cc1ccc(NC(=O)Nc2ccc(-c3csc4c(-c5cnn(C)c5)cnc(N)c34)cc2)cc1 and CCOc1ccc(NC(=O)Nc2ccc(-c3csc4c(-c5cnn(C)c5)cnc(N)c34)cc2)cc1 cannot be ordered by Ki: greater than 10 µM for the first, greater than 10 µM for the second.

COc1ccc2c(NC(=O)Nc3cccc(Br)n3)ccnc2c1 and COc1ccc2c(NC(=O)Nc3cccc(C(F)(F)F)n3)ccnc2c1 cannot be ordered by Ki: greater than 10 µM for the first, greater than 10 µM for the second.

O=C(c1cc(Cc2n[nH]c(=O)c3c2CCCC3)ccc1F)N1CCN(c2ncccn2)CC1 and O=c1[nH]c2sc3c(c2c2nc(-c4ccccc4)nn12)CCCC3 cannot be ordered by Ki: greater than 10 µM for the first, greater than 10 µM for the second.

First: Cc1cc(C)cc(NC(=O)Nc2ccc(-c3c(C)sc4ncnc(N)c34)cc2)c1
Second: Cc1cccc(NC(=O)Nc2ccc(-c3noc4ncnc(N)c34)cc2)c1
The Ki of the first is lower: 7.94 µM for the first, greater than 10 µM for the second. The first binds more tightly here.

First: O=C(NCc1ccccc1)Nc1ncc([N+](=O)[O-])s1
Second: Clc1cc(-c2c[nH]c3ncccc23)cc(NCc2ccccc2)n1
The Ki of the first is higher: greater than 10 µM for the first, 0.398 µM for the second.

Compared with Cc1cccc(-c2c(-c3ccncc3)nc(NC[C@@H](N)Cc3ccccc3)n(C)c2=O)c1, OCC[C@@H](Nc1nc2ccc(-c3ccncc3)cc2s1)c1ccccc1 is lower in Ki: greater than 10 µM for the first, 1 µM for the second. The second binds more tightly here.

Going from CCOC(=O)c1cn(-c2ccc(O)cc2C)c2cc(-c3ccncc3)ccc2c1=O to O=C(NC(CO)c1cc(Cl)cc(Cl)c1)c1ccc(-c2ccncc2)cc1 (stereo not drawn), the Ki falls from greater than 10 µM to 3.98 µM. The second binds more tightly here.

CN1CCN(c2cccc(Nc3nccc(-c4c(C(N)=O)nc5ccccn45)n3)c2)CC1 and CC(=O)N1CCC(Nc2nccc(-c3c(-c4ccc(F)cc4)nc4occn34)n2)CC1 cannot be ordered by Ki: greater than 10 µM for the first, greater than 10 µM for the second.

CCc1c(-c2ccc(C(C)(C)O)cc2)[nH]c2nccnc12 and CCc1nccn2c(-c3ccnc(NCC(C)(C)O)n3)c(-c3ccc(F)cc3F)nc12 cannot be ordered by Ki: greater than 10 µM for the first, greater than 10 µM for the second.

CC(C)(CO)CNc1nccc(-c2c(-c3ccc(F)cc3)nc3c(OCC(F)(F)F)nccn23)n1 and Fc1ccc(-c2nc3cnccn3c2-c2ccnc(NCC3CC3)n2)cc1 cannot be ordered by Ki: greater than 10 µM for the first, greater than 10 µM for the second.

Going from O[C@H]1CC[C@H](Nc2nc(Cl)cc(-c3c[nH]c4ncccc34)n2)CC1 to O=c1cc(-c2ccncc2)nc(NC2CCCCC2)[nH]1, the Ki rises from 0.158 µM to greater than 10 µM. The first binds more tightly here.

First: Cc1cnc(-c2cnc(NCCNc3ccc(C#N)cn3)nc2-c2ccc(Cl)cc2Cl)[nH]1
Second: Cc1ccc(Nc2nc3ccc([N+](=O)[O-])cc3[nH]2)nc1
The Ki of the first is higher: greater than 10 µM for the first, 0.794 µM for the second. The second binds more tightly here.

Going from c1ccc(CSc2nc(-c3ccncc3)n[nH]2)cc1 to c1ccc(Nc2nc(-c3ccc4[nH]ncc4c3)cs2)cc1, the Ki falls from 7.94 µM to 2.51 µM (3.2-fold). The second binds more tightly here.

First: O=C(Nc1cnccn1)Nc1ccnc2ccc(C(F)(F)F)cc12
Second: Cc1nnc(-c2cc3c(Oc4ccc(C(F)(F)F)cc4)cncc3s2)o1
The Ki of the first is lower: 3.98 µM for the first, greater than 10 µM for the second.

Going from O=c1[nH]c2sc3c(c2c2nc(-c4cccnc4)nn12)CCCC3 to S=c1[nH]nc2c3c4c(sc3n3c(=S)[nH]nc3n12)CCC4, the Ki falls from greater than 10 µM to 1.58 µM.

Compared with Cc1c(Cl)c(N2CCC(CN)C2)nc2[nH]cc(C(=O)O)c(=O)c12 (stereo not drawn), Cc1cc(OC[C@@H]2CC[C@H](C(=O)O)C2)c(NC(=O)Nc2cnc(C#N)cn2)cc1Cl is lower in Ki: greater than 10 µM for the first, 6.31 µM for the second. The second binds more tightly here.

Going from O=C1NC(=O)C(c2cnc3ccccn23)=C1c1cn2c3c(cc(F)cc13)CN(C(=O)N1CCCCC1)CC2 to CN1CCC(C(=O)n2nc(N)c3cc(-c4cn(Cc5ccccc5)nn4)ccc32)CC1, the Ki falls from greater than 10 µM to 7.94 µM.

CCCCn1c(NC(=O)c2ccc(C#N)cc2)nc2cc(N(C)C(=O)C3CCCCC3)ccc21 and NC(=O)c1sc2ccc(Cl)c(Cl)c2c1NC(=O)c1ccc(Cl)cc1 cannot be ordered by Ki: greater than 10 µM for the first, greater than 10 µM for the second.

First: N[C@H](COc1cncc(/C=C/c2ccncc2)c1)Cc1c[nH]c2ccccc12
Second: Cc1n[nH]c2ccc(-c3cncc(OC[C@@H](N)Cc4cccc(OC(F)(F)F)c4)c3)cc12
The Ki of the first is 25-fold higher: 7.94 µM for the first, 0.316 µM for the second.

Compared with CC(C)(C(N)=O)n1cc(-c2cnc(N)c3c(-c4ccc(NC(=O)Nc5cccc(F)c5)cc4)csc23)cn1, COc1ccc(NC(=O)Nc2ccc(-c3csc4c(-c5cnn(CC(C)(C)O)c5)cnc(N)c34)cc2)cc1 is higher in Ki: 3.16 µM for the first, greater than 10 µM for the second.

First: Nc1ncnn2ccc(C(=O)Nc3ccc(NC(=O)Nc4cccc(F)c4)cc3)c12
Second: Nc1n[nH]c2cccc(-c3ccc(NC(=O)Nc4cc(CO)ccc4F)cc3)c12
The Ki of the first is higher: greater than 10 µM for the first, 0.398 µM for the second.

Compared with CN1CC[C@@H](c2c(O)cc(O)c3c(=O)cc(-c4ccccc4Cl)oc23)[C@@H](O)C1, Cc1cc(C)c(/C=C2\C(=O)Nc3ccccc32)[nH]1 is lower in Ki: greater than 10 µM for the first, 2 µM for the second.

CCOc1ccccc1/C=N/NC(=O)c1nnn(-c2nonc2N)c1N1CCCC1 and C/C(=N\NC(=O)c1nnn(-c2nonc2N)c1-c1ccccc1)c1ccco1 cannot be ordered by Ki: greater than 10 µM for the first, greater than 10 µM for the second.

Compared with NC(=O)c1cccc2[nH]c(-c3ccc(NC(=O)c4cccc(S(=O)(=O)N5CCOCC5)c4)cc3)nc12, O=C1NCc2c1cccc2-c1ccc(Nc2nc3ccccc3[nH]2)cc1 is lower in Ki: greater than 10 µM for the first, 5.01 µM for the second. The second binds more tightly here.

Cc1ccc(NC(=O)Nc2ccc(-c3cccc4c3CNC4=O)cc2)cc1C and Cc1cc(C)cc(NC(=O)Nc2ccc(-c3cccc4c3CNC4=O)c(C(F)(F)F)c2)c1 cannot be ordered by Ki: greater than 10 µM for the first, greater than 10 µM for the second.

Cc1cc(-c2ccccc2)n(-c2cc(N/N=C/c3ccco3)ncn2)n1 and COc1cccc(/C=C2/S/C(=N\c3ccccc3)NC2=O)c1 cannot be ordered by Ki: greater than 10 µM for the first, greater than 10 µM for the second.

O=c1[nH]cc(I)c2nc(-c3ccccc3)cn12 and Nc1c(-c2ccccc2)c2cc(Cl)ccc2[nH]c1=O cannot be ordered by Ki: greater than 10 µM for the first, greater than 10 µM for the second.

First: Cc1cccc(C2(c3cccc(C)c3)CC2C(=O)Nc2ccncc2)c1 (stereo not drawn)
Second: COc1cccc([C@@H](C)NC(=O)c2ccc(-c3ccncc3C)cc2)c1
The Ki of the first is higher: greater than 10 µM for the first, 0.2 µM for the second. The second binds more tightly here.

CCOC(=O)c1ccc2[nH]c3c(c2c1)CCNC3=O and NC(=O)c1cccc2c1Nc1nnc(Cl)cc1C(=O)N2 are within 1.5-fold of each other in Ki: 6.31 µM for the first, 7.94 µM for the second.

First: CCCC(=O)Nc1n[nH]c2nc3ccccc3cc12
Second: CCCC(=O)Nc1n[nH]c2ccc(-c3cn(Cc4ccccc4)nn3)cc12
The Ki of the first is higher: greater than 10 µM for the first, 1 µM for the second.

NC(=O)c1c(OCc2c(F)cc(Br)cc2F)nsc1NC(=O)NCCCCN1CCCC1 and CC(C)(CO)c1nnc2ccc(-c3c(-c4ccc(F)cc4F)nc4n3CCC4)nn12 cannot be ordered by Ki: greater than 10 µM for the first, greater than 10 µM for the second.

First: Cn1nc(C(F)(F)F)c2c(=O)c3cc(Cl)ccc3n(O)c21
Second: O=C(Nc1ccc2[nH]ncc2c1)c1ccc(Cl)cc1
The Ki of the first is higher: greater than 10 µM for the first, 7.94 µM for the second. The second binds more tightly here.

First: C/C(=N/NC(=N)N)c1cc(NC(=O)NCCCCCCNC(=O)Nc2cc(/C(C)=N\NC(=N)N)cc(/C(C)=N/NC(=N)N)c2)cc(/C(C)=N/NC(=N)N)c1
Second: Oc1cc(O)cc(/C=C/c2ccc(O)c(O)c2)c1
The Ki of the first is 10-fold higher: 3.16 µM for the first, 0.316 µM for the second. The second binds more tightly here.

Going from NCCCOc1cc2c(c(-c3ccc(Nc4nc5ccc(Cl)cc5o4)cc3)c1)CNC2=O to O=C(Nc1ccc2cn[nH]c2c1)c1ccc(Cl)cc1, the Ki rises from 5.01 µM to greater than 10 µM. The first binds more tightly here.

CCCCNC1=NS(=O)N=C1Nc1ccc(F)cc1 (stereo not drawn) and Cn1cc(-c2ccncn2)c(-c2ccc(F)cc2)n1 cannot be ordered by Ki: greater than 10 µM for the first, greater than 10 µM for the second.

First: COc1cccc([C@@H](C)NC(=O)c2ccc(-c3ccncc3F)cc2OC)c1
Second: CC(C)Nc1c(-c2ccc3[nH]ncc3c2)nc2ncccn12
The Ki of the first is 2-fold lower: 0.631 µM for the first, 1.26 µM for the second. The first binds more tightly here.

Nc1ncnc2c1c(I)nn2[C@@H]1O[C@H](CO)[C@@H](O)[C@H]1O and CCNNc1cc(C)c(C#N)c2nc3ccccc3n12 cannot be ordered by Ki: greater than 10 µM for the first, greater than 10 µM for the second.

CC(C)c1nnc2ccc(-c3c(-c4ccc(F)cc4F)nc4n3CCC4)nn12 and NC(=O)Cn1cc(-c2cc(-c3cc4ccccc4s3)c3[nH]ncc3c2)c2nc(N)ncc21 cannot be ordered by Ki: greater than 10 µM for the first, greater than 10 µM for the second.

Compared with COc1cc(/C=C(\C#N)c2nc3ccccc3[nH]2)c(Br)cc1O, CS(=O)(=O)Nc1cc2c(cc1Cl)NC(=O)Nc1cnc(C#N)c(n1)OCCCCCO2 is higher in Ki: 6.31 µM for the first, greater than 10 µM for the second. The first binds more tightly here.
